Experimental data: patent publication US6703198B1, “Methods of diagnosing alagille syndrome” (The University of Washington, priority 1997, dated 2004)
Several values for one entry are separate records, joined by “and”; a condition that tells them apart may be missing. Equal entries are not always repeated. Entries after “also recorded” stand apart in the source; their conditions may differ. Where no end group is shown, it is not given here.

How the values were obtained:
[1] = tested on: full-length Notch1-expressing 32D cells; assay: G-CSF-induced granulocytic differentiation of full-length Notch1-expressing 32D myeloid progenitor clones in the presence of hJAGGED1 peptides; assay type: cell-based, mouse; conditions: 10 μM peptide, 20 ng/ml G-CSF, FIG. 4
Description: The ability of the hJAGGED1 HS-27a human stromal cell line to effect differentiation of hematopoietic progenitors was analyzed using the interleukin-3 (IL-3)-dependent myeloid cell line, 32D. The 32D cell line, which was derived from normal mouse bone marrow, is a heterogeneous cell line with individual cells having characteristics of myeloid cells at various early stages of maturation. 32D cells proliferate as undifferentiated blasts in the presence of IL-3, but differentiate into mature granulocytes when stimulated with granulocyte colony stimulating factor (G-CSF; Valtieri et al. Immunol. 138:3829-3835 (1987), which is incorporated herein by reference), thereby providing a system for analyzing factors that may affect myeloid differentiation.
The HS-27a, HS-23 and HS-5 human stromal cell lines were maintained in RPMI containing 10% FCS as described in Roecklein and Torok-Storb, supra, 1995. 32D cells were maintained in Iscove's Modified Dulbecco's Medium (IMDM) with 10% fetal bovine serum (FBS) and 10% WCM as a source of IL-3. For differentiation experiments, 32D cell lines were harvested in log phase, washed, counted, and replated at constant density (2×10^5 cells/ml, 4 ml/well) in 6-well plates in IMDM, 10% FBS, 0.5% WCM and 20 ng/ml recombinant human G-CSF from Amgen (Thousand Oaks, Calif.). Aliquots of […] were removed daily for analysis and replaced with fresh media. Viable cells were counted, and Wright stained cytospins were evaluated for granulocytic differentiation as follows. […] Criteria for granulocytic differentiation included nuclear segmentation, an increased cytoplasmic to nuclear ratio, and increased eosinophilia and granularity of the cytoplasm. […]
Three peptides corresponding to different regions of the hJAGGED1 molecule were analyzed for their effect on differentiation of Notch1-expressing 32D cells treated with G-CSF. […]
Peptide SEQ ID NO:9 (“J-A”) has the sequence […]. […] Differentiation of 32D cells in the presence of hJAGGED peptides was analyzed as described above. […]

[2] = tested on: mouse hematopoietic progenitor cells (Sca-1+ lin-); assay: Number of G-CFU formed from mouse hematopoietic progenitor cells treated with G-CSF and cell culture supernatant; assay type: cell-based; conditions: for Number of CFU-G-CSF, Average: average of samples 1-4, control BHK supernatant about 60
Description: A soluble fragment of hJAGGED1 (SEQ ID NO:7), which contains the extracellular domain of hJAGGED1 including the signal peptide, DSL region, EGF-like repeats and cysteine-rich region, was prepared by amplifying a portion of the hJAGGED1 cDNA with PCR primers 420 (SEQ ID NO:20; […]) and 421 (SEQ ID NO:21; […]). The hJAGGED1 cDNA fragment, corresponding to residues 1 to 1010, was subcloned into expression vector pDX to generate pDX-hJg1.Ex. After transfection into BHK and COS cells, the cell culture supernatant was assayed for the ability to effect the number of G-CFU formed from mouse hematopoietic progenitor cells ([…] lin^−), which were prepared by removing cells that stained with anti-Gr-1, anti-CD4, anti-CD11b, anti-CD2, anti-CD45R and anti-Ter-119 and then positively selecting Sca-1^+ cells with anti-Sca-1.

Substance | differentiation of full-length Notch1-expressing 32D clones in the presence of G-CSF and peptide [1] | Number of CFU-G-CSF, Average ([2]; Sca-1+ lin- cells treated with G-CSF, listed as Supernatant of BHK cells transfected with pDX-hJg1.Ex) | Number of CFU-G-CSF, Average ([2]; Sca-1+ lin- cells treated with G-CSF, listed as supernatant from BHK cells transfected with the hJAGGED1 extracellular domain co) | granulocytic differentiation of mouse hematopoietic progenitor cells ([2]; conclusion from Table 2) | Number of CFU-G-CSF ([2]; individual samples, Sca-1+ lin- cells treated with G-CSF, BHK cell supernatant, listed as Supernatant of BHK cells transfected with pDX-hJg1.Ex)
CDDYYYGFGCNKFCRPR (cysteine pairing not given here) [peptide SEQ ID NO:9, 17-mer, residues 188 to 204 of hJAGGED1, portion of the DSL domain] | significantly inhibited |  |  |  | 
CRQGCSPKHGSCKLPGDCRCQYG [peptide SEQ ID NO:10, residues 235 to 257 of hJAGGED1, part of EGF-repeat 1 in the extracellular domain] | comparable to that observed with G-CSF alone; also recorded: unaffected |  |  |  | 
KRRKPGSHTHSASEDNTTN [peptide SEQ ID NO:11, residues 1096 to 1114 of hJAGGED1, hydrophilic portion of the intracellular domain] | comparable to that observed with G-CSF alone; also recorded: unaffected |  |  |  | 
hJAGGED1 fragment SEQ ID NO:7: soluble fragment of hJAGGED1, residues 1 to 1010 (extracellular domain), tested as supernatant of transfected BHK cells |  | 24 | about 24 | inhibits granulocytic differentiation | 19 and 34 and 20 and 23
